Tests used:
Format in all cases: biochemical
human cathepsin S = molecular target: T1, human cathepsin S (Homo sapiens, UniProt P25774); assay: Cathepsin S Ki determination (boc-Val-Leu-Lys-AMC fluorescent substrate); settings: baculovirus-expressed human cathepsin S 2 nM, pH 6.5, competitive inhibition fit; read-out: Ki Cat. S
T1 construct: made in house; host or cells: baculovirus expression system
Description: Cathepsin S Ki Determination
The assay uses baculovirus-expressed human cathepsin S and the boc-Val-Leu-Lys-AMC fluorescent substrate available from Bachem in a 384 well plate format, in which 7 test compounds can be tested in parallel with a positive control comprising a known cathepsin S inhibitor comparator.
280 μl/well of 12.5% DMSO are added to rows B-H of two columns of a 96 deep well polypropylene plate. 70 μl/well of substrate is added to row A. 2×250 μl/well of assay buffer (100 mM Na phosphate, 100 mM NaCl, pH 6.5) is added to row A, mixed, and double diluted down the plate to row H.
100 μl/well of assay buffer is added to columns 2-5 and 7-12 of 4 rows of a 96 well V bottom polypropylene plate. 200 μl/well of assay buffer is added to columns 1 and 6.
The first test compound prepared in DMSO is added to column 1 of the top row, typically at a volume to provide between 10 and 30 times the initially determined rough Ki. The rough Ki is calculated from a preliminary run in which 10 μl/well of 1 mM boc-VLK-AMC ( 1/10 dilution of 10 mM stock in DMSO diluted into assay buffer) is dispensed to rows B to H and 20 μl/well to row A of a 96 well Microfluor™ plate. 2 μl of each 10 mM test compound is added to a separate well on row A, columns 1-10. Add 90 μl assay buffer containing 1 mM DTT and 2 nM cathepsin S to each well of rows B-H and 180 μl to row A. Mix row A using a multichannel pipette and double dilute to row G. Mix row H and read in the fluorescent spectrophotometer. The readings are Prism data fitted to the competitive inhibition equation, setting S=100 μM and KM=100 μM to obtain an estimate of the Ki, up to a maximum of 100 μM.
The second test compound is added to column 6 of the top row, the third to column 1 of the second row etc. Add 1 μl of comparator to column 6 of the bottom row. Mix column 1 and double dilute to column 5. Mix column 6 and double dilute to column 10.
Using an 8-channel multistepping pipette set to 5×10 μl, distribute 10 μl/well of substrate to the 384 well assay plate. Distribute the first column of the substrate dilution plate to all columns of the assay plate starting at row A. The tip spacing of the multichannel pipette will correctly skip alternate rows. Distribute the second column to all columns starting at row B.
Using a 12-channel multistepping pipette set to 4×10 μl, distribute 10 μl/well of inhibitor to the 384 well assay plate. Distribute the first row of the inhibitor dilution plate to alternate rows of the assay plate starting at A1. The tip spacing of the multichannel pipette will correctly skip alternate columns. Similarly, distribute the second, third and fourth rows to alternate rows and columns starting at A2, B1 and B2 respectively.
Mix 20 ml assay buffer and 20 μl 1M DTT. Add sufficient cathepsin S to give 2 nM final concentration.
Using the a distributor such as a Multidrop 384, add 30 μl/well to all wells of the assay plate and read in fluorescent spectrophotomoter such as an Ascent.
Fluorescent readings, (excitation and emission wavelengths 390 nm and 460 nm respectively, set using bandpass filters) reflecting the extent of enzyme cleavage of the fluorescent substrate, […] the inhibitor, are linear rate fitted for each well.
Fitted rates for all wells for each inhibitor are fitted to the competitive inhibition equation using SigmaPlot 2000 to determine V, Km and Ki values.
(§1) Potential inhibitors are screened using the above assay with variable concentrations of test compound. Reactions were initiated by addition of enzyme to buffered solutions of substrate and inhibitor. Ki values were calculated according to equation 1.
(§2) [formula] where v0 is the velocity of the reaction, V is the maximal velocity, S is the concentration of substrate with Michaelis constant of KM, and I is the concentration of inhibitor.

cathepsin K = molecular target: T2, cathepsin K (Homo sapiens, UniProt P43235); assay: Determination of cathepsin K proteolytic catalytic activity (H-D-Ala-Leu-Lys-AMC fluorogenic substrate); settings: human recombinant enzyme 5 nM, ambient temperature; read-out: Ki Cat. K
T2 construct: made in house; host or cells: not fixed: E coli, Pichia or Baculovirus systems named as options
T2 sequence (P43235 115-329): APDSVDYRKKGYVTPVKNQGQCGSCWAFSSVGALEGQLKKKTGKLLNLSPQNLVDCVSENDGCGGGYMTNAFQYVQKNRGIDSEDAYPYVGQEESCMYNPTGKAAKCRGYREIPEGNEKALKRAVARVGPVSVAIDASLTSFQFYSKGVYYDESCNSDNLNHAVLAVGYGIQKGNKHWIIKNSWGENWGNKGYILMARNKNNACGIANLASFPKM
Description: Determination of Cathepsin K Proteolytic Catalytic Activity
Convenient assays for cathepsin K are carried out using human recombinant enzyme, such as that described in PDB.
DE Homo sapiens cathepsin K (pycnodysostosis), mRNA (cDNA clone MGC:23107
The recombinant cathepsin K can be expressed in a variety of commercially available expression systems including E coli, Pichia and Baculovirus systems. The purified enzyme is activated by removal of the prosequence by conventional methods.
Standard assay conditions for the determination of kinetic constants used a fluorogenic peptide substrate, typically H-D-Ala-Leu-Lys-AMC, and were determined in either 100 mM Mes/Tris, pH 7.0 containing 1 mM EDTA and 10 mM 2-mercaptoethanol or 100 mMNa phosphate, imM EDTA, 0.1% PEG4000 pH 6.5 or 100 mM Na acetate, pH 5.5 containing 5 mM EDTA and 20 mM cysteine, in each case optionally with […] as stabiliser. The enzyme concentration used was 5 nM. The stock substrate solution was prepared at 10 mM in DMSO. Screens were carried out at a fixed substrate concentration of 60 μM and detailed kinetic studies with doubling dilutions of substrate from 250 μM. The total DMSO concentration in the assay was kept below 3%. All assays were conducted at ambient temperature. Product fluorescence (excitation at 390 nm, emission at 460 nm) was monitored with a Labsystems Fluoroskan Ascent fluorescent plate reader. Product progress curves were generated over 15 minutes following generation of AMC product.
as §1, §2

human cathepsin L = human cathepsin L (Homo sapiens, UniProt P07711); assay: Cathepsin L Ki (H-D-Val-Leu-Lys-AMC substrate); settings: human cathepsin L 5 nM, sodium acetate pH 5.5; read-out: Ki Cat. L
human cathepsin L, sequence (P07711 114-333): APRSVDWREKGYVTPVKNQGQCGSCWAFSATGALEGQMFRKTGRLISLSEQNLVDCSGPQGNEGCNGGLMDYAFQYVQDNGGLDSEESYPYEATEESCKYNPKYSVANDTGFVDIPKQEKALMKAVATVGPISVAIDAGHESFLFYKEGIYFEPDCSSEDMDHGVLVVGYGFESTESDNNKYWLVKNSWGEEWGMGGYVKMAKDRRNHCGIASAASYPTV
Description: The procedure above with the following amendments is used for the determination of Ki for cathepsin L.
The enzyme is commercially available human cathepsin L (for example Calbiochem). The substrate is H-D-Val-Leu-Lys-AMC available from Bahcem. The assay buffer is 100 mM sodium acetate 1 mM EDTA, pH5.5) The DMSO stock (10 mM in 100% DMSO) is diluted to 10% in assay buffer. Enzyme is prepared at 5 nM concentration in assay buffer plus 1 mM dithiothreitol just before use. 2 ul of 10 mM inhibitor made up in 100% DMSO is dispensed into row A. 10 μl of 50 μM substrate (= 1/200 dilution of 10 mM stock in DMSO, diluted in assay buffer).
as §1, §2

T1 sequence (P25774 115-331): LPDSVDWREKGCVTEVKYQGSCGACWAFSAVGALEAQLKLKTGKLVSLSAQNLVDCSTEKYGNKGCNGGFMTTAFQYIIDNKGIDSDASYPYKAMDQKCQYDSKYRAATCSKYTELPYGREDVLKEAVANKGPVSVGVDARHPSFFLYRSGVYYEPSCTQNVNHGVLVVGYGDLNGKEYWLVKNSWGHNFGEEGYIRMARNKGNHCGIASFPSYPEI

Structure (SMILES)	Ki (human cathepsin S)	Ki (cathepsin K)	Ki (human cathepsin L)
Cn1ccc(NC(=O)C(=O)C2(NC(=O)[C@H](CC3(C)CCCC3)NC(=O)N3CCOCC3)CCC2)n1 [Example 6]	0.19 nM	460 nM	600 nM
CC1(C[C@H](NC(=O)c2ccoc2)C(=O)NC2(C(=O)C(=O)NC3CC3)CC(F)(F)C2)CCCC1 [Example 27]	0.79 nM	2300 nM	12000 nM
Cn1ccc(NC(=O)C(=O)C2(NC(=O)[C@H](CC3(C)CCCC3)NC(=O)C3CC3)CC(F)C2)n1 (stereo partly drawn) [Example 60]	0.24 nM	360 nM	1700 nM
O=C(NC1CC1)C(=O)C1(NC(=O)[C@H](CC2(F)CCCC2)NC(=O)c2ccc(O)c(F)c2)CC(F)(F)C1 [Example 50, N-[1-(1-Cyclopropylaminooxalyl-3,3-difluoro-cyclobutylcarbamoyl)-2-(1-fluoro-cyclopentyl)-ethyl]-3-fluoro-4-hydroxy-benzamide]	1 nM	2400 nM	3100 nM
CC1(C[C@H](NC(=O)N2CCOCC2)C(=O)NC2(C(=O)C(=O)NC3CC3)CCC2)CCCC1 [Example 2]	2.3 nM	3500 nM	7100 nM
CC1(C[C@H](NC(=O)N2CCOCC2)C(=O)NC2(C(=O)C(=O)NCCCCl)CCC2)CCCC1 [Example 35]	2 nM	3500 nM	6300 nM

The remaining lines, values ahead:

Ki (human cathepsin S)	Ki (cathepsin K)	Ki (human cathepsin L)	Structure (SMILES)
3.9 nM	1000 nM	3800 nM	COC1CC(NC(=O)C(CC2(C)CCC2)NC(=O)N2CCOCC2)(C(=O)C(=O)NC2CC2)C1 (single isomer, unassigned) [Example 122]
0.65 nM	3600 nM	200 nM	Cn1ccc(NC(=O)C(=O)C2(NC(=O)[C@H](CC3CCCCC3)NC(=O)N3CCOCC3)CC(F)(F)C2)n1 [Example 111]
0.59 nM	310 nM	14000 nM	CNC(=O)C(=O)C1(NC(=O)[C@H](CC(C)(C)C)NC(=O)c2ccc(NS(=O)(=O)c3ccccc3)cc2)CCC1 [Example 75]
0.35 nM	180 nM	1500 nM	Cn1ccc(NC(=O)C(=O)[C@]2(NC(=O)[C@H](CC3(C)CCCC3)NC(=O)N3CCCC3)C[C@H](F)C2)n1 [Example 123, Pyrrolidine-1-carboxylic Acid [1-[3-fluoro-1-(1-methyl-1H-pyrazol-3-ylaminooxalyl)-cyclobutylcarbamoyl]-2-(1-methyl-cyclopentyl)-ethyl]-amide]

Reference: patent US8853281B2, “Cysteine protease inhibitors” (Medivir UK Ltd, priority 2008, dated 2014)
